Measurements: patent US10442807B2, “Aryl substituted bicyclic compounds as herbicides” (FMC Corporation, priority 2015, dated 2019)

Key:
Assay type in all cases: in vivo
[1] = system: barnyardgrass (Echinochloa crus-galli); test: Test A preemergence, directed soil spray, visual injury rating; details: approx. 10 d, 0 = no effect, 100 = complete control
In short: (§1)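 Rated visually against untreated controls after approx. 10 d in greenhouse, scale 0 = no effect, 100 = complete control. Seeded loam/sand blend given directed soil spray preemergence, or plants sprayed at one- to two-leaf stage, 2-10 cm tall; surfactant-containing non-phytotoxic solvent formulation.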

[2] = system: foxtail, giant (giant foxtail, Setaria faberii); test: as above; details: approx. 10 d, 0 = no effect, 100 = complete control
In short: as §1

kochia (Kochia scoparia) [3] = test: as above; details: approx. 10 d, 0 = no effect, 100 = complete control
In short: as §1

[4] = system: pigweed (Amaranthus retroflexus); test: as above; details: approx. 10 d, 0 = no effect, 100 = complete control
In short: as §1

[5] = system: ragweed (common ragweed, Ambrosia elation); test: as above; details: approx. 10 d, 0 = no effect, 100 = complete control
In short: as §1

[6] = system: ryegrass, Italian (Italian ryegrass, Lolium multiflorum); test: as above; details: approx. 10 d, 0 = no effect, 100 = complete control
In short: as §1

[7] = system: barnyardgrass (Echinochloa crus-galli); test: Test A postemergence application, visual injury rating; details: approx. 10 d, 0 = no effect, 100 = complete control
In short: as §1

[8] = system: blackgrass (Alopecurus myosuroides); test: as above; details: approx. 10 d, 0 = no effect, 100 = complete control
In short: as §1

corn (Zea mays) = test: as above; details: approx. 10 d, 0 = no effect, 100 = complete control
In short: as §1

[9] = system: foxtail, giant (giant foxtail, Setaria faberii); test: as above; details: approx. 10 d, 0 = no effect, 100 = complete control
In short: as §1

[10] = system: galium (catchweed bedstraw, Galium aparine); test: as above; details: approx. 10 d, 0 = no effect, 100 = complete control
In short: as §1

kochia (Kochia scoparia) [11] = test: as above; details: approx. 10 d, 0 = no effect, 100 = complete control
In short: as §1

[12] = system: pigweed (Amaranthus retroflexus); test: as above; details: approx. 10 d, 0 = no effect, 100 = complete control
In short: as §1

[13] = system: ragweed (common ragweed, Ambrosia elation); test: as above; details: approx. 10 d, 0 = no effect, 100 = complete control
In short: as §1

[14] = system: ryegrass, Italian (Italian ryegrass, Lolium multiflorum); test: as above; details: approx. 10 d, 0 = no effect, 100 = complete control
In short: as §1

[15] = system: wheat (Triticum aestivum); test: as above; details: approx. 10 d, 0 = no effect, 100 = complete control
In short: as §1

[16] = system: barnyardgrass (Echinochloa crus-galli); test: Test B flooded paddy test, visual plant response rating; details: 250 g ai/ha; applied to paddy water at 2-leaf stage; rated after 13 to 15 days; scale 0 to 100, 0 is no effect, 100 is complete control
In short: (§2)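 Visual 0–100 scores (0 none, 100 complete control) versus controls were taken 13 to 15 days after treatment in a greenhouse. Treatment was applied into flood water kept at 3 cm over the soil surface for the whole test.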

[17] = system: ducksalad (Heteranthera limosa); test: as above; details: 250 g ai/ha; applied to paddy water at 2-leaf stage; rated after 13 to 15 days; scale 0 to 100, 0 is no effect, 100 is complete control
In short: as §2

rice (Oryza sativa) = test: as above; details: 250 g ai/ha; applied to paddy water at 2-leaf stage; rated after 13 to 15 days; scale 0 to 100, 0 is no effect, 100 is complete control
In short: as §2

[18] = system: sedge, umbrella (small-flower umbrella sedge, Cyperus difformis); test: as above; details: 250 g ai/ha; applied to paddy water at 2-leaf stage; rated after 13 to 15 days; scale 0 to 100, 0 is no effect, 100 is complete control
In short: as §2

| SMILES | Barnyardgrass plant response rating (0 to 100 scale) ([1]; 125 g ai/ha) | Barnyardgrass plant response rating (0 to 100 scale) ([1]; 500 g ai/ha) | Foxtail, Giant plant response rating (0 to 100 scale) ([2]; 125 g ai/ha) | Foxtail, Giant plant response rating (0 to 100 scale) ([2]; 500 g ai/ha) | Kochia plant response rating (0 to 100 scale) (kochia (Kochia scoparia) [3]; 125 g ai/ha) | Kochia plant response rating (0 to 100 scale) (kochia (Kochia scoparia) [3]; 500 g ai/ha) | Pigweed plant response rating (0 to 100 scale) ([4]; 125 g ai/ha) | Pigweed plant response rating (0 to 100 scale) ([4]; 500 g ai/ha) | Ragweed plant response rating (0 to 100 scale) ([5]; 125 g ai/ha) | Ragweed plant response rating (0 to 100 scale) ([5]; 500 g ai/ha) | Ryegrass, Italian plant response rating (0 to 100 scale) ([6]; 125 g ai/ha) | Ryegrass, Italian plant response rating (0 to 100 scale) ([6]; 500 g ai/ha) | Barnyardgrass plant response rating (0 to 100 scale) ([7]; 125 g ai/ha) | Barnyardgrass plant response rating (0 to 100 scale) ([7]; 500 g ai/ha) | Blackgrass plant response rating (0 to 100 scale) ([8]; 125 g ai/ha) | Blackgrass plant response rating (0 to 100 scale) ([8]; 500 g ai/ha) | Corn plant response rating (0 to 100 scale) (corn (Zea mays); 125 g ai/ha) | Corn plant response rating (0 to 100 scale) (corn (Zea mays); 500 g ai/ha) | Foxtail, Giant plant response rating (0 to 100 scale) ([9]; 125 g ai/ha) | Foxtail, Giant plant response rating (0 to 100 scale) ([9]; 500 g ai/ha) | other results |
| --- | --- | --- | --- | --- | --- | --- | --- | --- | --- | --- | --- | --- | --- | --- | --- | --- | --- | --- | --- | --- | --- |
| CCCc1nnc2n1CC(c1ccc(C(F)(F)F)cc1)C2C(=O)Nc1cccc(F)c1F (stereo not drawn) [Compound 17] | 0 | 50 | 30 | 90 | 0 | 30 | 0 | 20 | 0 | 0 | 0 | 0 | 0 | 30 | 0 | 20 | 0 | 0 | 0 | 30 | Galium plant response rating (0 to 100 scale) ([10]; 125 g ai/ha): 40; Galium plant response rating (0 to 100 scale) ([10]; 500 g ai/ha): 50; Kochia plant response rating (0 to 100 scale) (kochia (Kochia scoparia) [11]; 125 g ai/ha): 20; Kochia plant response rating (0 to 100 scale) (kochia (Kochia scoparia) [11]; 500 g ai/ha): 50; Pigweed plant response rating (0 to 100 scale) ([12]; 125 g ai/ha): 0; Pigweed plant response rating (0 to 100 scale) ([12]; 500 g ai/ha): 40; Ragweed plant response rating (0 to 100 scale) ([13]; 125 g ai/ha): 0; Ragweed plant response rating (0 to 100 scale) ([13]; 500 g ai/ha): 0; Ryegrass, Italian plant response rating (0 to 100 scale) ([14]; 125 g ai/ha): 0; Ryegrass, Italian plant response rating (0 to 100 scale) ([14]; 500 g ai/ha): 0; Wheat plant response rating (0 to 100 scale) ([15]; 125 g ai/ha): 0; Wheat plant response rating (0 to 100 scale) ([15]; 500 g ai/ha): 0; Plant response rating, Flood, Barnyardgrass [16]: 0; Plant response rating, Flood, Ducksalad [17]: 30; Plant response rating, Flood, Rice (rice (Oryza sativa)): 0; Plant response rating, Flood, Sedge, Umbrella [18]: 0 |
| CSc1ccccc1NC(=O)C1c2nncn2CC1c1ccc(C)c(C)c1 (stereo not drawn) [Compound 18] | 20 | 60 | 0 | 80 | 0 | 0 | 0 | 0 | 0 | 30 | 0 | 20 | 0 | 30 | 0 | 0 | 0 | 0 | 0 | 20 | Galium plant response rating (0 to 100 scale) ([10]; 125 g ai/ha): 20; Galium plant response rating (0 to 100 scale) ([10]; 500 g ai/ha): 20; Kochia plant response rating (0 to 100 scale) (kochia (Kochia scoparia) [11]; 125 g ai/ha): 20; Kochia plant response rating (0 to 100 scale) (kochia (Kochia scoparia) [11]; 500 g ai/ha): 20; Pigweed plant response rating (0 to 100 scale) ([12]; 125 g ai/ha): 0; Pigweed plant response rating (0 to 100 scale) ([12]; 500 g ai/ha): 0; Ragweed plant response rating (0 to 100 scale) ([13]; 125 g ai/ha): 0; Ragweed plant response rating (0 to 100 scale) ([13]; 500 g ai/ha): 0; Ryegrass, Italian plant response rating (0 to 100 scale) ([14]; 125 g ai/ha): 0; Ryegrass, Italian plant response rating (0 to 100 scale) ([14]; 500 g ai/ha): 0; Wheat plant response rating (0 to 100 scale) ([15]; 125 g ai/ha): 0; Wheat plant response rating (0 to 100 scale) ([15]; 500 g ai/ha): 0; Plant response rating, Flood, Barnyardgrass [16]: 0; Plant response rating, Flood, Ducksalad [17]: 40; Plant response rating, Flood, Rice (rice (Oryza sativa)): 0; Plant response rating, Flood, Sedge, Umbrella [18]: 0 |
| Cc1ccc(C2Cn3c(C)nnc3C2C(=O)Nc2cccc(F)c2F)cc1C (stereo not drawn) [Compound 19] | 50 | 90 | 70 | 90 | 0 | 30 | 0 | 0 | 0 | 0 | 0 | 20 | 60 | 90 | 0 | 70 | 0 | 30 | 30 | 80 | Galium plant response rating (0 to 100 scale) ([10]; 125 g ai/ha): 0; Galium plant response rating (0 to 100 scale) ([10]; 500 g ai/ha): 50; Kochia plant response rating (0 to 100 scale) (kochia (Kochia scoparia) [11]; 125 g ai/ha): 0; Kochia plant response rating (0 to 100 scale) (kochia (Kochia scoparia) [11]; 500 g ai/ha): 20; Pigweed plant response rating (0 to 100 scale) ([12]; 125 g ai/ha): 0; Pigweed plant response rating (0 to 100 scale) ([12]; 500 g ai/ha): 0; Ragweed plant response rating (0 to 100 scale) ([13]; 125 g ai/ha): 0; Ragweed plant response rating (0 to 100 scale) ([13]; 500 g ai/ha): 20; Ryegrass, Italian plant response rating (0 to 100 scale) ([14]; 125 g ai/ha): 0; Ryegrass, Italian plant response rating (0 to 100 scale) ([14]; 500 g ai/ha): 20; Wheat plant response rating (0 to 100 scale) ([15]; 125 g ai/ha): 0; Wheat plant response rating (0 to 100 scale) ([15]; 500 g ai/ha): 30; Plant response rating, Flood, Barnyardgrass [16]: 30; Plant response rating, Flood, Ducksalad [17]: 20; Plant response rating, Flood, Rice (rice (Oryza sativa)): 0; Plant response rating, Flood, Sedge, Umbrella [18]: 0 |
| O=C(Nc1ccccc1F)C1c2nncn2CC1c1ccc(Cl)cc1 (stereo not drawn) [Compound 20] | 20 | 70 | 30 | 90 | 30 | 90 | 0 | 0 | 0 | 50 | 0 | 0 | 20 | 60 | 0 | 0 | 20 | 80 | 20 | 70 | Galium plant response rating (0 to 100 scale) ([10]; 125 g ai/ha): 30; Galium plant response rating (0 to 100 scale) ([10]; 500 g ai/ha): 50; Kochia plant response rating (0 to 100 scale) (kochia (Kochia scoparia) [11]; 125 g ai/ha): 0; Kochia plant response rating (0 to 100 scale) (kochia (Kochia scoparia) [11]; 500 g ai/ha): 40; Pigweed plant response rating (0 to 100 scale) ([12]; 125 g ai/ha): 0; Pigweed plant response rating (0 to 100 scale) ([12]; 500 g ai/ha): 0; Ragweed plant response rating (0 to 100 scale) ([13]; 125 g ai/ha): 0; Ragweed plant response rating (0 to 100 scale) ([13]; 500 g ai/ha): 20; Ryegrass, Italian plant response rating (0 to 100 scale) ([14]; 125 g ai/ha): 0; Ryegrass, Italian plant response rating (0 to 100 scale) ([14]; 500 g ai/ha): 0; Wheat plant response rating (0 to 100 scale) ([15]; 125 g ai/ha): 0; Wheat plant response rating (0 to 100 scale) ([15]; 500 g ai/ha): 20; Plant response rating, Flood, Barnyardgrass [16]: 40; Plant response rating, Flood, Ducksalad [17]: 70; Plant response rating, Flood, Rice (rice (Oryza sativa)): 0; Plant response rating, Flood, Sedge, Umbrella [18]: 0 |
